In patent US9567318B2, “Substituted pyrimidine compounds and uses thereof” (Memorial Sloan-Kettering Cancer Center, priority 2009, dated 2017):

Columns and labels:
[1] = system: primary human AML cells (blasts, leukemia stem cells); test: Treatment of primary AML cells; type: cell-based; details: 24 h
Description: FIG. 20. Treatment of primary AML cells with YK5. YK5 kills both blast and cancer stem cells but not normal cells. Cells were treated with increasing concentrations of YK5 for 24 h. (a-b) % viability relative to untreated control is shown. Open bars: “Other” represent normal cells in the same patient (non-blast), Gray bars: Blasts (CD45 dim). red bars: leukemia stem cells (LSCs) (CD34+CD38-CD123+). (c) CFU (Colony forming units) decrease after treatment of primary AML cells with YK5. **p<0.001.
Strikingly, a high sensitivity of phenotypically described leukemia stem cells and of total leukemic blasts was observed (FIG. 20b; red vs. gray bars). […] Thus, a compound with cancer stem cell toxicity, such as YKs, is of significant value to improving cancer therapy.
Primary Cell Isolation and Culture. Primary human AML cells were obtained with informed consent. All manipulation and analysis of specimens was approved by the Weill Cornell Medical College Institutional Review Board. Mononuclear cells were isolated using Ficoll-Plaque (Pharmacia Biotech, Piscataway, N.Y.) density gradient separation. In some cases, cells were cryopreserved in freezing medium consisting of Iscove's modified Dulbecco medium (IMDM), 40% fetal bovine serum (FBS), and 10% dimethylsulfoxide (DMSO) or in CryoStor™ CS-10 (Biolife).

[2] = system: MDA-MB-468 xenografted tumors; test: Tumor xenografts; type: in vivo; details: i.t., alternate days, mice
Description: FIG. 12. YK5 affects the major hallmarks of cancer: inhibits proliferation and invasiveness and arrests cancer cells in the cell cycle. (a) The indicated cancer cells were incubated with increasing concentrations of inhibitors and growth over 72 h was assessed. Y-axis values below 0% represent cell death of the starting population. Drugs were assayed in triplicate. (b) Mice (n=5) bearing MDA-MB-468 subcutaneously (s.c.) xenografted tumors that reached a volume of approximately 100-200 mm^3, were administered i.t. YK5 or vehicle as described in Methods. Tumor volume (mm^3) was estimated from caliper measurements. (c) Cells were treated for 24 h with indicated concentrations of YK5. DNA content was analyzed by propidium iodide staining and flow cytometry (left), whereas proteins by western blotting (right). (d) Hsp70 client proteins isolated by YK55-beads from SKBr3 and MDA-MB-468 extracts (500 μg) were analyzed by western blotting. […] (e) MDA-MB-231 breast cancer cells were treated for 24 h with YK5 (1 μM) and protein extracts were subjected to immunoblotting (upper) or pre-treated for 24 h with vehicle or YK5, and viable cells able to migrate through Matrigel over a 20 h period were quantified and data graphed (lower). […]
Tumor Xenografts. […] Tumor volume was determined by measurement with Vernier calipers, and tumor volume was calculated as the product of its length×width^2×0.4. […]

[3] = system: Mia-PaCa2, AsPC-1, BxPC3 and PL45 cells; test: Apoptosis, acridine orange/ethidium bromide, pancreatic cancer cells; type: cell-based, human; details: 10 μM, 24-48 h
Description: To determine whether cell death by YK5 was attributable to apoptosis, cells were treated with YK5 and effects on morphology, as well as on several effectors and mediators of apoptosis were analyzed (FIG. 13). To quantify the number of cells undergoing apoptosis, cells were stained with acridine orange/ethidium bromide (AO/EB) and analyzed under a fluorescence microscope for the percentage of viable, apoptotic (early and late) and necrotic cells. […] Most sensitive to YK5 were pancreatic cancer cells.
Apoptosis-Acridine Orange/Ethidium Bromide. Apoptosis was determined using acridine orange/ethidium bromide (AO/EB) double staining. Acridine orange is taken up by both viable and nonviable cells and emits green fluorescence if intercalated into double stranded nucleic acid (DNA) or red fluorescence if bound to single stranded nucleic acid (RNA). Ethidium bromide is taken up only by nonviable cells and emits red fluorescence by intercalation into DNA. (1) Viable cells have uniform green nuclei with organized structure. […] Following staining with Acridine Orange and Ethidium Bromide cells were visualized with a fluorescent microscope (Zeiss Axiovert 40 CFL) and counted. Percentage of apoptotic cells was determined from 200-300 cells counted in each group.

[4] = system: SKBr3 HER2+ breast cancer cells; test: Growth Inhibition Assay (Alamar blue), SKBr3; type: cell-based, human; details: Homo sapiens, SK-BR-3, 72 h
Description: The IC50 values listed for some of these compounds illustrate the antiproliferative effects of the subject compounds and were obtained using the Growth Inhibition assays described herein.
Growth Inhibition Assay. Antiproliferative effects of inhibitors were evaluated using the dye Alamar blue. This reagent offers a rapid objective measure of cell viability in cell culture, and it uses the indicator dye resazurin to measure the metabolic capacity of cells, an indicator of cell viability. Briefly, cells were plated on Costar 96-well plates. For attached cells (such as SKBr3, MDA-MB-468, LNCaP, MRCS), 8,000 cells/well were used. For suspension cells (such as MOLM-13, Kasumi-1, OCI-Ly7, PBL), 20,000 cells/well were plated. Cells were allowed to incubate for 24 h at 37° C. before drug treatment. Drugs were added in triplicates at the indicated concentrations, and the plate was incubated for 72 h. Alamar Blue (440 μM) was added, and the plate read 6 h later using the Analyst GT (Fluorescence intensity mode, excitation 530 nm, emission 580 nm, with 560=dichroic mirror). Results were analyzed using the Softmax Pro software. The percentage cell growth inhibition was calculated by comparing fluorescence readings obtained from treated versus control cells, accounting for initial cell population (time zero).

[5] = system: infiltrating ductal carcinoma tissue; test: Ex vivo treatment of fresh breast tumor tissue; parameters: species or system human; details: 5 μM, 24 h post addition

SMILES: C=CC(=O)Nc1cc(N)nc(Sc2c(OC)nc(N3CCN(C)CC3)nc2OC)n1 [YK5, N-(6-amino-2-(4,6-dimethoxy-2-(4-methylpiperazin-1-yl)pyrimidin-5-ylthio)pyrimidin-4-yl)acrylamide]
- cell death in primary AML specimens [1]: induced potent cell death in blast, stem and progenitor populations
- growth of xenografted tumors [2]: inhibited the growth of MDA-MB-468 xenografted tumors
- apoptosis in pancreatic cancer cells [3]: induced significant apoptosis
- IC50 [4]: 0.455 µM
- tumor cells dead or dying [5]: 60%
